Results reported in publication PMC9602792, “Preclinical evaluation of the epithelial sodium channel inhibitor AZD5634 and implications on human translation” (American Journal of Physiology - Lung Cellular and …, 2022).

Biological target: T1, ENaC (Homo sapiens, UniProt P37088+P51168+P51170)
T1 construct: host or cells: primary normal human bronchial epithelial cells, ALI culture
T1 sequence (P37088 1-669): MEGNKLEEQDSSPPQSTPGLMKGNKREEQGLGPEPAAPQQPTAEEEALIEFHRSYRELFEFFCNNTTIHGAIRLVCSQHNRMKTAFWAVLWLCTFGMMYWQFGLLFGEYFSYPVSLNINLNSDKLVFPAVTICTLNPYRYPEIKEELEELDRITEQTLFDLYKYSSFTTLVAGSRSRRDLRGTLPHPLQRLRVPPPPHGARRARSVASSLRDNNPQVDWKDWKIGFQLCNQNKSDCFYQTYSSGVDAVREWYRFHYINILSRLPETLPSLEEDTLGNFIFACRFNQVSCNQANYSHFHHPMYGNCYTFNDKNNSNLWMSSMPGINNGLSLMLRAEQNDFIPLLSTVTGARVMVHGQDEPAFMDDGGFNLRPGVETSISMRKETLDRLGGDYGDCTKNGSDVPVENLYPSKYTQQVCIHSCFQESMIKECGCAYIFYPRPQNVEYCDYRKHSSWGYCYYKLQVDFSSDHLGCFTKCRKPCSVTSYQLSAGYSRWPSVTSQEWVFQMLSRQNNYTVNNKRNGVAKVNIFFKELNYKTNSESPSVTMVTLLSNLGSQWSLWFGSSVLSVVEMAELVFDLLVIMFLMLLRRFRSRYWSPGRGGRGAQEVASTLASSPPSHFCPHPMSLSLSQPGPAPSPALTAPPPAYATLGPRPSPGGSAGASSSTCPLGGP
T1 sequence (P51168 1-640): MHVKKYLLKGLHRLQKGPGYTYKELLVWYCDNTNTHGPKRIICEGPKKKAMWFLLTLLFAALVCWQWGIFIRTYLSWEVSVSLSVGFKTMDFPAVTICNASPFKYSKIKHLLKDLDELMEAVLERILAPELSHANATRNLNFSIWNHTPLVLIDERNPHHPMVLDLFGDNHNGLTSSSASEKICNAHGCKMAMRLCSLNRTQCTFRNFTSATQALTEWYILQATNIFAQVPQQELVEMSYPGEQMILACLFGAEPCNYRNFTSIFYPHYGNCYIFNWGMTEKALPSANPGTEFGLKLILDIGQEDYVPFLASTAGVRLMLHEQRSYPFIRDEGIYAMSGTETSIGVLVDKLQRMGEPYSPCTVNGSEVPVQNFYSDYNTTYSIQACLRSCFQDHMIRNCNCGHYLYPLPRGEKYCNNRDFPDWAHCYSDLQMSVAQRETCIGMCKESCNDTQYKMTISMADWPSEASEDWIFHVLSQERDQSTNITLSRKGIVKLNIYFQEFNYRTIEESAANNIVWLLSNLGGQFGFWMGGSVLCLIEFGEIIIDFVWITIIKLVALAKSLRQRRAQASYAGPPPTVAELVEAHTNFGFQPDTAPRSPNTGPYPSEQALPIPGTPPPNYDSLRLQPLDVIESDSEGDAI
T1 sequence (P51170 1-649): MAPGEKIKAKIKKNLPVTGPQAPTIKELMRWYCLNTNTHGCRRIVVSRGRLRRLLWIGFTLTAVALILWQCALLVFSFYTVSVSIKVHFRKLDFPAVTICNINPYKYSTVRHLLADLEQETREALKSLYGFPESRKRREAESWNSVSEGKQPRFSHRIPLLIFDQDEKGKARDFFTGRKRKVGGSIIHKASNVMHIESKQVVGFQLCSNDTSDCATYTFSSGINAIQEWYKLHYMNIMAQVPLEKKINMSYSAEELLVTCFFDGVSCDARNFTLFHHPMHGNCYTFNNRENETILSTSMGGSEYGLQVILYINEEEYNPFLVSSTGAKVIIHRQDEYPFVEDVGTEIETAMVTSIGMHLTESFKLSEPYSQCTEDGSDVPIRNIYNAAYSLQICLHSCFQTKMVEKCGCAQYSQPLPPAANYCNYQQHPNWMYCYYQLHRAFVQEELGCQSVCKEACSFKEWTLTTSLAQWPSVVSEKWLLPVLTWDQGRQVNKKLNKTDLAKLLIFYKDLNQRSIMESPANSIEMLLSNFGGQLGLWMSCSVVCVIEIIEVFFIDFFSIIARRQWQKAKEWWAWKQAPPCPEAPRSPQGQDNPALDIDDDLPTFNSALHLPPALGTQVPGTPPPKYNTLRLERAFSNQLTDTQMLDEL
Assay: Ussing chamber short-circuit current (Isc) in normal HBEC ALI cultures from healthy donors
Format: cell-based
Method: Normal human bronchial epithelial cell (HBEC) cultures from healthy donors were procured from MatTek Corporation (Ashland, MA), grown at an ALI on Transwell permeable supports (0.4 µm polycarbonate membrane, 12 mm insert, and Costar Corning), and used to test the in vitro potency of AZD5634. Using the same protocol, sheep ALI cultures were prepared from primary bronchial epithelial cells (native sheep tracheas were obtained from Öströö Sheep Farm, Sweden, and internally processed at AstraZeneca R&D, Gothenburg, Sweden) to validate AZD5634 potency at sheep ENaC. Experiments were performed using modified Ussing chambers containing carboxygenated Krebs solution (95% O2-5% CO2) at 37°C. Cell layers were allowed to equilibrate before being voltage-clamped at 0 mV, and then briefly clamped at 10 mV to assess transepithelial electrical resistance.
All data are presented as means ± SE. Values of n refer to the number of cultures used in each group as appropriate. For normally distributed data, paired or unpaired Student’s t tests were used. For data that were not normally distributed, Mann–Whitney U test and Wilcoxon-matched pairs test were used. For comparisons of multiple groups, ANOVA tests were used followed by Tukey–Kramer multiple comparisons test (parametric) or ANOVA followed by Kruskal–Wallis test (nonparametric). For experiments using primary HBECs, a minimum of four different donors supplied cultures for each experiment. For the Ussing chamber data, unconstrained concentration–response curves were fitted using an in-house Microsoft Excel add-in package by nonlinear, four parameter, logistic regression analysis. From these curves, pEC50 and Emax values were taken from which mean values were calculated.

additional effect on Isc when benzamil was added (benzamil 10 µM on final response plateau): No additional effect | potency of inhibition of amiloride-sensitive current (Isc) relative to amiloride (non-CF and CF airway cells): 2 to 3 logs | IC50 (normal HBEC ALI cultures, normalized to 10 µM benzamil = 100%, read-out: IC50 for decrease in Isc (EC50 in Fig. 1A legend)): 3.8 nM | potency shift versus benzamil (normal HBEC cultures, Isc): 1 log unit
Substance: AZD5634
